# Laboratory results as given in patent publication US20040029138A1, “Global electronic medicine response profile testing network” (priority 2003, published 2004).
# Structures can show the parent of a compound that is named as a salt.
# Experiments:
# subjects with IBS = test: Double blind, placebo controlled clinical trials of alosetron for IBS, response stratified by 5HTT genotype; type: in vivo, human; conditions: for Relief of IBS symptoms (subjects achieving relief): 12 weeks treatment
# Experimental: Genetic samples were obtained from 219 female human subjects enrolled in clinical trials of alosetron for the treatment of IBS. Using PCR technology as is known in the art, an insertion/deletion genetic marker was assayed in the 5-hydroxytryptamine-transporter gene (5HTT gene). The alleles were labeled as “del” (deletion) or “ins” (insertion) resulting in three possible genotypes (del/del; del/ins or ins/ins). The subjects' response to alosetron in the clinical trial setting was reviewed and correlated with genotype. In the double blind, placebo controlled clinical trials; subjects received 12 weeks of treatment with either alosetron or a placebo. A favorable response to alosetron was when a subject reported relief of IBS symptoms during six weeks of the twelve-week trial. The incidence of various other effects, including constipation, was also recorded. The response of subjects to treatment with alosetron in the clinical trial was stratified according to genotype.
# [1] = system: patients with Irritable Bowel Syndrome (IBS); conditions: double blind, placebo controlled studies; cited from earlier work
compound,measurement,setting,value
"Cc1[nH]cnc1CN1CCc2c(c3ccccc3n2C)C1=O [alosetron, Alosetron hydrochloride]",Relief of IBS symptoms (subjects achieving relief),"subjects with IBS; del/del 5HTT genotype subjects (21/31), relief during six weeks of the twelve-week trial",68%
same,Constipation reported (incidence),"subjects with IBS; del/del subjects (n=31), 4 subjects",13%
same,Relief of IBS symptoms (subjects achieving relief),subjects with IBS; del/ins 5HTT genotype subjects (21/33),64%
same,Constipation reported (incidence),"subjects with IBS; del/ins subjects (n=33), 10 subjects",30%
same,Effectiveness versus placebo in producing relief of IBS symptoms,subjects with IBS; in each of the three 5HTT genotypes,more effective than placebo
same,Relief of IBS symptoms (subjects achieving relief),subjects with IBS; ins/ins 5HTT genotype subjects (22/38),58%
same,Constipation reported (incidence),"subjects with IBS; ins/ins subjects (n=38), 8 subjects",21%
same,Constipation reported (incidence),subjects with IBS; total group of subjects receiving alosetron (n=102),21%
same,Effect on pain and bowel function in IBS patients,[1],reduce pain and improve bowel function
